The source of these data is patent publication US20100047246A1, “Methods and Compositions for Treating Vascular Disease” (The General Hospital Corporation, priority 2006, published 2010).

The test system of one series is Tg(flk1:GFP) embryos. The series is described as follows: lycat morpholino and mRNA injections, cloche phenotype and GFP scoring in transgenic embryos. The class given is in vivo, zebrafish. The note with it: for flk1:GFP signals in vessels: 24 hpf; for flk1:GFP signals in vessels / gata1:GFP signal in the blood islands: a345 control, lycat RNA 300 ng/ul; for flk1:GFP signals in vessels / gata1:GFP signal in the blood islands / Wild-type (phenotype), number of embryos / clo (phenotype), number of embryos: d522 0.3 mM; for gata1:GFP signal in the blood islands: gata1:GFP embryos; for Wild-type (phenotype), number of embryos / clo (phenotype), number of embryos: injected into 1- to 2-cell stage Tg(flk1:GFP) embryos, scored at 36 hpf and 48 hpf, a345 0.5 mM, Lycat RNA 0.3 μg/μl. The method, then:
The cloche alleles, clo^m39 and clo^m378 have been previously described (Stainier et al., Development 121:3141, 1995; Stainier et al., Development 123:285, 1996). A new ENU-induced allele, clo^fv087b was also used. Genetic mapping of cloche was carried out using hybrid F1 (Clo^m39×TL, clo^m378×TL, clo^fv087b×WIK). Transgenic lines Tg(flk1:GFP) and Tg(gata1:GFP) (Long et al., Proc. Natl. Acad. Sci. U.S.A. 94:6267, 1997; Cross et al., ArterioScler. Thromb. Vasc. Biol. 23:911, 2003), were crossed with heterozygous clo^fv087b fish to generate transgenic clo^fv087b individuals. Examining cloche phenotypes and the GFP expression of embryos from sibling crossings identified heterozygous clo^fv087b/+ fish with the Tg(flk1:GFP) or Tg(gata1:GFP).
(§1) Four morpholinos were synthesized: three anti-sense morpholinos targeting the zebrafish lycat ATG site (atg): […] (SEQ ID NO:5); the second splicing donor site (d322): […] (SEQ ID NO:6); the third splicing donor site (d522): […] (SEQ ID NO:7); and a control morpholino (a345): […] (SEQ ID NO:8) (Gene Tools, LLC). Zebrafish lycat and mouse lycat were cloned into the pCS2 vector, and capped mRNA was synthesized using mRNA in vitro transcription kits (Ambion Inc., Austin, Tex.). Morpholinos and mRNA were injected into one- or two-cell stage wild-type, clo^fv087b; Tg(flk1:GFP) or clo^fv087b; Tg(gata1:GFP) embryos. Injected embryos were incubated at 28.5° C. for examination of phenotypes or were fixed for in situ hybridization. The bright-field pictures were taken using a Zeiss M12 dissecting microscope, and the fluorescence pictures were taken with a Zeiss Stemi SVII Apo fluorescence microscope.

Series [1] has as its system scl expression in the ICM. The series is described as follows: scl RNA in situ hybridization in injected embryos. Type of series: in vivo, zebrafish. The note with it: d522 0.3 mM, 0.4 mM, 0.5 mM, 20 hpf, RNA in situ analysis.
Text: FIG. 3. Antisense lycat morpholinos mimic the cloche mutant phenotype and lycat mRNA rescues morpholino mediated knockdown.
as §1
In situ hybridization and antibody staining were done in the presence of blocking solution (Roche, Basil, Switzerland), in the RNA hybridization solution, and antibody staining solution (Schulte-Merker, Looking at embryos, 2002). […]

Take “a345: control morpholino: GCAGCGGGCACTGCTGGTGGAAGT (SEQ ID NO:8) (all phosphorodiamidate morpholino (PMO)) [reference compound]”: in the series with Tg(flk1:GFP) embryos, the “flk1:GFP signals in vessels” value is “strong flk1:GFP signals”; the “gata1:GFP signal in the blood islands” value is given as “strong gata1:GFP signal”; the “Wild-type (phenotype), number of embryos” value came to 65; the “clo (phenotype), number of embryos” value was determined as 0.

As for “d522: anti-sense morpholino targeting zebrafish lycat third splicing donor site: CTGAACACACACACTGACCGAAGC (SEQ ID NO:7) (all phosphorodiamidate morpholino (PMO))”, the “scl expression in the ICM” value in series [1] was “decreased scl”. Moreover, the “scl expression in the ICM” value in series [1] (listed as lycat morpholino) was “reduces expression of Scl in the intermediate cell mass (ICM) in a dose-dependent manner”. In the series with Tg(flk1:GFP) embryos (0.3 mM d522, 5 nl, Tg(flk1:GFP) embryos, 36 hpf and 48 hpf, 132 out of 150), the “injected embryos showing a clear cloche phenotype (lack blood cells, vascular endothelium, endocardium)” value is on record as 88%. Further, in the series on Tg(flk1:GFP) embryos, the “flk1:GFP signals in vessels” value is reported as “very little flk1:GFP signals”; the “gata1:GFP signal in the blood islands” value is listed as “very little gata1:GFP signal”; the “Wild-type (phenotype), number of embryos” value was 18; the “clo (phenotype), number of embryos” value stood at 132.
